Counter-ions that a name gives are not always drawn.
Target: T1, Calcium sensing receptor (hCaSR) (Homo sapiens, UniProt P41180)
T1 construct: expressed in transfected cells
T1 sequence (P41180 20-1078): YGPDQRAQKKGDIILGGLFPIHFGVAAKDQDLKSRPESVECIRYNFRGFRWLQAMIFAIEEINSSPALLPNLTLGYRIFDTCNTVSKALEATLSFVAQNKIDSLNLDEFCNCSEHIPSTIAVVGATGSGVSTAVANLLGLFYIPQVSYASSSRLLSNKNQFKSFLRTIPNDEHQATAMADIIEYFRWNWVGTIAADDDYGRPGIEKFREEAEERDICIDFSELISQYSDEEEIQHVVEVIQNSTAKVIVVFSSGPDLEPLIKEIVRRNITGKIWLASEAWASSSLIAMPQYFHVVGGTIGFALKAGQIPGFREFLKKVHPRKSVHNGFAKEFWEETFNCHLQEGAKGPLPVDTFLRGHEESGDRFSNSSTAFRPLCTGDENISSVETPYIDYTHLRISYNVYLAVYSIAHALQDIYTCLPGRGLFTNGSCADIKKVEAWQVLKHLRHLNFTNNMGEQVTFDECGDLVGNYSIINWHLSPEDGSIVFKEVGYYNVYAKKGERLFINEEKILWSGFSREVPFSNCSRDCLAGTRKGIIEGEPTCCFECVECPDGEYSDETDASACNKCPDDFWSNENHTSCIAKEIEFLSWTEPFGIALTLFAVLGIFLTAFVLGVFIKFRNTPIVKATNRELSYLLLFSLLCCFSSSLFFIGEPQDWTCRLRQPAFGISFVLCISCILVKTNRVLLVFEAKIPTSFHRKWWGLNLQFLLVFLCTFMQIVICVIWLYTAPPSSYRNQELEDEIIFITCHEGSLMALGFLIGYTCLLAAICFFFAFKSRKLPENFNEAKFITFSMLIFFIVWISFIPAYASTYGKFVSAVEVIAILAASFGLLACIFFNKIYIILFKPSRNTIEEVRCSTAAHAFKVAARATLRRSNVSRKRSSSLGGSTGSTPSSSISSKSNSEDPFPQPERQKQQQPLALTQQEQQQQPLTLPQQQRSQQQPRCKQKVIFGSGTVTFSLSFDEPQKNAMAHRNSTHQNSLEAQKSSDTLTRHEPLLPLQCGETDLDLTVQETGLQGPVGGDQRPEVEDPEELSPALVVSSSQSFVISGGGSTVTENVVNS
Test: In-vitro assay of calcimimetics through modulation of calcium sensing receptor: increase in intracellular calcium [Ca2+]i, FLIPR
Format: cell-based
Details: stably transfected HEK293 cells expressing hCaSR; Fluo4NW dye; 0.3 mM CaCl2; 8-point assay; read-out: EC50 Range
Experimental: In-Vitro Assay Method of Calcimemtics Through Modulation of Calcium Sensing Receptor (CaSR):
The ability of the compounds to modulate Calcium sensing receptor is determined by measuring an increase in intracellular calcium [Ca^2+]i. Stably transfected HEK293 cells expressing hCaSR_pTriEx-3 hygro vector are developed. Cells are grown overnight on a 96-well plate to 80% confluency in Ham's F12 containing 20% FBS at 37° C., 5% CO2. Subsequently, cells are washed extensively with 20 mM HEPES buffer containing 126 mM NaCl, 1 mM MgCl2 and 4 mM KCl to remove serum components that might interfere with the assay. Cells are loaded with calcium sensing Fluo4NW dye in HEPES base buffer containing 0.1% BSA and 1 mg/ml glucose for 30 minutes to measure changes in intracellular calcium. The activities of the compounds are measured in FLIPR using 0.3 mM CaCl2 in 20 mM HEPES base buffer. The effectiveness of the compound to modulate receptor activity is determined by calculating the EC50 responses for that compound in an 8-point assay and plotted using GraphPad Prism 5.

Structure (SMILES) | EC50
C[C@@H](NCCC1CN(c2ccc(C(F)(F)F)c(C(=O)O)c2)c2ccccc2O1)c1cccc2ccccc12 (stereo partly drawn) [Example 135a, 5-(2-(2-(((R)-1-(Naphthalen-1-yl)ethyl)amino)ethyl)-2H-benzo [b][1,4]oxazin-4(3H)-yl)-2-(trifluoromethyl) benzoic acid hydrochloride] | < 20 nM
C[C@@H](NCC1CN(c2ccc(C(=O)O)cc2)c2ccccc2O1)c1cccc2ccccc12 (stereo partly drawn) [Example 6, 4-(2-((((R)-1-(Naphthalen-1-yl)ethyl)amino)methyl)-2H-benzo[b][1,4]oxazin-4(3H)-yl)benzoic acid hydrochloride] | 50 to 200 nM
Cc1ccc(N2C(=O)C(CN[C@H](C)c3cccc4ccccc34)Oc3ccccc32)cc1C(=O)O (single isomer, unassigned) [Example 87b, hydrochloride] | 20 to 50 nM
